Patent US20040009485A1, “Cellular arrays for the identification of altered gene expression” (priority 2002, published 2004)
Several values for one entry are separate records, joined by “and”; a condition that tells them apart may be missing. Identical values can stand only once.

Legend:
[1] = tested on: heat shock regulon gene fusions; test: Stress response of heat shock regulon luxCDABE gene fusions (ethanol); type: cell-based, E. coli; conditions: clpB-luxCDABE fusion (heat shock regulon), DPD2243; 5 μg/ml nalidixic acid, 110 minutes
Protocol: To test the stress responses, one or two single colonies of each selected strain were used to inoculate 5.0 ml of LB medium containing 150 μg/ml of ampicillin. These cultures were grown overnight at 37° C. then diluted by adding 50 μl or 100 μl of the overnight culture into 10.0 ml of fresh LB medium (without ampicillin) and grown with agitation at 37° C. until the culture was in exponential phase with readings on a Klett-Summerson colorimeter containing the red filter of between 10 and 40. These actively growing cultures were immediately used to initiate a stress response experiment by adding 50 μl of cultures to 50 μl of LB medium containing various concentrations of chemical in the wells a 96 well luminometer plate. This division of the actively growing culture at the time of chemical addition ensured identical populations were present when the stress was imposed. Light production was measured in a Dynex ML3000 luminometer at 37° C. The dimensionless units of light production, relative light units (RLU), are obtained by comparison with the light reading from an internal light-emitting diode. The cycle mode of the ML3000 luminometer, similar to previous descriptions (Van Dyk et al., Appl. Environ. Microbiol. 60:1414-120) was used. […]

[2] = tested on: LuxArray 1.0 luxCDABE gene fusions; test: LuxArray 1.0 solid phase identification of nalidixic acid responsive gene fusions; type: cell-based, E. coli; conditions: 5 μg/ml, duplicate spots; for Solid expt NA/LB, t = 2 hr / Solid expt NA/LB, t = 4 hr / Solid expt NA/LB, t = 6 hr / Solid expt NA/LB, t = 8 hr: normalized; for upregulation on LuxArray 1.0: 4 hours of nalidixic acid treatment
Source text: The genome-registered Lux-A luxCDABE gene fusion collection. (described in Example 1) provided a list of 4988 plasmid-borne gene fusions, each with boundary information relative to the E. coli genome and the orientation relative to the lux operon. An operably linked or a functional construct was defined as one consisting of a genomic fragment encompassing a promoter adjacent to the promoterless lux operon in an orientation that causes transcription initiated at the promoter to proceed into and through the lux operon. Therefore, to identify the functional subset of the collection, criteria were computationally applied to filter the list of clones first for functionality and second for redundancy. A list of definitions of documented and predicted operons (Thieffry et al. (1998) Bioinformatics 14:391-400) was used to define genomic coordinates of the operons as the translational start codon position of the first open reading frame (ORF) in the operon and the translational stop codon position of the last ORF in the operon. Additional information included the strand on which the operon is coded (direction of transcription), and gene names (common or “b” number). The lux gene fusions were filtered computationally using the following assumptions; (i) a functional transcriptional fusion would result from any genomic fragment starting greater than 50 base pairs upstream of the start codon of the first ORF and ending anywhere between the start codon of the first ORF in the operon and the stop codon of the last ORF in the operon, thereby eliminating the occurrence of a transcriptional stop signal in the construct between the promoter and the lux operon; and (ii) the promoter contained in the genomic fragment must face in the correct orientation relative to the lux operon (pictorially represented in FIG. 6). Finally, in cases when more then one clone fit the criteria for a single operon, only the one construct containing the genomic fragment representing the greatest amount of upstream sequence was retained thereby eliminating redundancy. The PERL code used and the resulting list of 689 selected gene fusions are found in Scheme 1 and Table 18 (following Example 7). These fusions represent 27% of the 2584 known and predicted transcriptional units in the E. coli genome. Individual cultures of strains containing the identified gene fusions were rearranged from the ninety original culture plates to create a set of sixteen 96-well microplates containing all the identified fusions, duplicated with side by side symmetry, including appropriately placed controls. These 16 plates represent were used to generate the cellular arrays for use in subsequent analyses.
The E. coli strains were grown overnight at 37° C. in […]) LB medium supplemented with 100 μg/ml ampicillin in a set of sixteen 96-well dishes. These cultures were designated “printing plates” and were used as the cell source to manufacture the arrays. Porous membranes (Biodyne B, Nunc) were sterilized with UV illumination for 10 min then placed in contact with pre-warmed of solid LB growth media in a culture dish (OmniTray, Nunc). Printing of 4×4 subarrays was accomplished using a BioMek 2000 (Beckman Coulter) equipped with a High Density Replication Tool (HDRT). […] After sterilization, the pins are air-dried prior to the next transfer. The E. coli strains in the LuxArray were printed onto an approximately 8×12 cm membrane in two sets of triplicates.
Arrays were printed from fresh overnight cultures onto membranes on plates containing LB media. Alter 6 hr of growth at 37° C. membranes were moved to pre-warmed plates containing either LB media or LB media supplemented with 5 μg/ml nalidixic acid then replaced at 37° C. to continue growing. Images were collected for each array every two hours from 0-8 hr after relocation using a cooled CCD camera (FluorChem 8000: f0.85 lens, 2 min exposure, AlphaInnotech). […]

[3] = 1pxA 1pxB rnhB dnaE fusion (lux-a.pk061.c3), listed as NA
[4] = b1728 fusion (lux-a.pk033.c5), listed as NA
[5] = b1936 fusion (lux-a.pk0019.g1), listed as NA
[6] = dinG ybiB fusion (lux-a.pk0024.f5), listed as NA
[7] = dinP fusion (lux-a.pk055.a3), listed as NA
[8] = fusion (lux-a.pk0015.d6), listed as NA
[9] = oraA fusion (lux-a.pk058.f5), listed as NA
[10] = uvrA fusion (lux-a.pk0001.b6), listed as NA
[11] = yaaF fusion (lux-a.pk031.e7), listed as NA
[12] = yfhJ fdx hscA yfhE fusion (lux-a.pk0019.g2), listed as NA

CCn1cc(C(=O)O)c(=O)c2ccc(C)nc21 [Nalidixic acid, nalidixic acid]
Response Ratio [1]: 0.40
Solid expt NA/LB, t = 2 hr [2, 3]: 3.5 and 2.7
Solid expt NA/LB, t = 4 hr [2, 3]: 3.1 and 3.5
Solid expt NA/LB, t = 6 hr [2, 3]: 2.8 and 3.0
Solid expt NA/LB, t = 8 hr [2, 3]: 1.7 and 1.9
Solid expt NA/LB, t = 2 hr [2, 4]: 3.7 and 2.1
Solid expt NA/LB, t = 4 hr [2, 4]: 4.3 and 3.1
Solid expt NA/LB, t = 6 hr [2, 4]: 3.2 and 3.3
Solid expt NA/LB, t = 8 hr [2, 4]: 2.6 and 2.5
Solid expt NA/LB, t = 2 hr [2, 5]: 2.5 and 4.4
Solid expt NA/LB, t = 4 hr [2, 5]: 7.7 and 8.2
Solid expt NA/LB, t = 6 hr [2, 5]: 9.7 and 15.5
Solid expt NA/LB, t = 8 hr [2, 5]: 7.1 and 10.2
Solid expt NA/LB, t = 2 hr [2, 6]: 2.5 and 3.4
Solid expt NA/LB, t = 4 hr [2, 6]: 3.7 and 4.2
Solid expt NA/LB, t = 6 hr [2, 6]: 3.5 and 3.1
Solid expt NA/LB, t = 8 hr [2, 6]: 2.9 and 2.6
Solid expt NA/LB, t = 2 hr [2, 7]: 3.1 and 5.5
Solid expt NA/LB, t = 6 hr [2, 7]: 4.2 and 8.1
Solid expt NA/LB, t = 4 hr ([2]; frvR frvX frvB frvA fusion (lux-a.pk046.e6)): 2.3
Solid expt NA/LB, t = 2 hr ([2]; frvR frvX frvB frvA fusion (lux-a.pk046.e6), listed as NA): 2.8 and 2.1
Solid expt NA/LB, t = 2 hr [2, 8]: 2.3 and 2.2
Solid expt NA/LB, t = 4 hr [2, 8]: 6.4 and 4.1
Solid expt NA/LB, t = 6 hr [2, 8]: 2.7 and 1.9
Solid expt NA/LB, t = 8 hr [2, 8]: 0.6 and 0.8
Solid expt NA/LB, t = 2 hr [2, 9]: 5.1 and 4.7
Solid expt NA/LB, t = 4 hr [2, 9]: 7.9 and 7.7
Solid expt NA/LB, t = 6 hr [2, 9]: 5.9 and 5.6
Solid expt NA/LB, t = 8 hr [2, 9]: 3.9 and 3.8
upregulation on LuxArray 1.0 ([2]; ruvA fusion): 1.7 fold and 2.1 fold
Solid expt NA/LB, t = 2 hr [2, 10]: 2.5 and 2.9
Solid expt NA/LB, t = 4 hr [2, 10]: 2.3 and 2.4
Solid expt NA/LB, t = 6 hr [2, 10]: 1.6 and 1.1
Solid expt NA/LB, t = 8 hr [2, 10]: 1.0 and 0.6
upregulation on LuxArray 1.0 ([2]; uvrD fusion): 1.6 fold and 1.9 fold
Solid expt NA/LB, t = 2 hr [2, 11]: 2.1 and 2.0
Solid expt NA/LB, t = 4 hr [2, 11]: 2.0 and 2.1
Solid expt NA/LB, t = 6 hr [2, 11]: 1.3 and 1.8
Solid expt NA/LB, t = 8 hr [2, 11]: 1.0 and 1.5
Solid expt NA/LB, t = 2 hr ([2]; yfhJ fdx hscA yfhE fusion (lux-a.pk0019.g2)): 2.1
Solid expt NA/LB, t = 4 hr [2, 12]: 2.0 and 2.2
Solid expt NA/LB, t = 6 hr [2, 12]: 1.7 and 1.5
Solid expt NA/LB, t = 8 hr [2, 12]: 1.4 and 1.3
Solid expt NA/LB, t = 4 hr ([2]; yigN fusion (lux-a.pk046.f11), listed as NA): 2.5 and 4.3
